Some targets named below: Glutamate receptor 3 (Rattus norvegicus, UniProt P19492); Adenosine receptor A2a (Rattus norvegicus, UniProt P30543); Nischarin (Rattus norvegicus, UniProt Q4G017); D(3) dopamine receptor (Bos taurus, UniProt F1N454); D(2) dopamine receptor (Rattus norvegicus, UniProt P61169); Histamine H1 receptor (Cavia porcellus, UniProt P31389).
Assay [1] addresses Glutamate receptor ionotropic, kainate 1 (Rattus norvegicus, UniProt P22756).
Assay [2] addresses Gamma-aminobutyric acid type B receptor subunit 1 (UniProt Q9Z0U4).
Assay [3] concerns the target 5-hydroxytryptamine receptor 3A (Rattus norvegicus, UniProt P35563).
Assay [4] has as its target T1, Type-1 angiotensin II receptor (Oryctolagus cuniculus, UniProt P34976).
T1 sequence (P34976 whole entry): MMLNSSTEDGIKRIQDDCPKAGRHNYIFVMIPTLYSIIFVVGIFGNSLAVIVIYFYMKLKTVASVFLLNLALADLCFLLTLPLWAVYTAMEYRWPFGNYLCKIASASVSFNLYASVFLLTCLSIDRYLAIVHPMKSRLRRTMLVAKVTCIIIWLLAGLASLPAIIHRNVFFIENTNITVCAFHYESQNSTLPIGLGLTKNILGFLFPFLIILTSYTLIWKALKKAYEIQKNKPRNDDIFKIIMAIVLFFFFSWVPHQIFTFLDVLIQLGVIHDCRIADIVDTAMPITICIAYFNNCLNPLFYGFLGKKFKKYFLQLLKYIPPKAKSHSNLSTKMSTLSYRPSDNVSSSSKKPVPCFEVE

Assay [5] has as its target T2, Type-2 angiotensin II receptor (Rattus norvegicus, UniProt P35351).
T2 sequence (P35351 whole entry): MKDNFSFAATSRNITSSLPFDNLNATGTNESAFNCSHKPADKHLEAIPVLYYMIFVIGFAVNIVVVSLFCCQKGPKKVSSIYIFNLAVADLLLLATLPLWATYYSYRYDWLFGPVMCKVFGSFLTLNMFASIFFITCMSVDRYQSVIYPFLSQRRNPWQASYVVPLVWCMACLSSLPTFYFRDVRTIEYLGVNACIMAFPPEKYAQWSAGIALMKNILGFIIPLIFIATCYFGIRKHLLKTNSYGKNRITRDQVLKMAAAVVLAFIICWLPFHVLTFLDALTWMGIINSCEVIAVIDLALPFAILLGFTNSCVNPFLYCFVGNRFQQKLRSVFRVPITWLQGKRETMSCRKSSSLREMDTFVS

In assay [6] the target is Beta-2 adrenergic receptor (Rattus norvegicus, UniProt P10608).
The target in assay [7] is T3, Glycine amidinotransferase, mitochondrial (Rattus norvegicus, UniProt P50442).
T3 sequence (P50442 whole entry): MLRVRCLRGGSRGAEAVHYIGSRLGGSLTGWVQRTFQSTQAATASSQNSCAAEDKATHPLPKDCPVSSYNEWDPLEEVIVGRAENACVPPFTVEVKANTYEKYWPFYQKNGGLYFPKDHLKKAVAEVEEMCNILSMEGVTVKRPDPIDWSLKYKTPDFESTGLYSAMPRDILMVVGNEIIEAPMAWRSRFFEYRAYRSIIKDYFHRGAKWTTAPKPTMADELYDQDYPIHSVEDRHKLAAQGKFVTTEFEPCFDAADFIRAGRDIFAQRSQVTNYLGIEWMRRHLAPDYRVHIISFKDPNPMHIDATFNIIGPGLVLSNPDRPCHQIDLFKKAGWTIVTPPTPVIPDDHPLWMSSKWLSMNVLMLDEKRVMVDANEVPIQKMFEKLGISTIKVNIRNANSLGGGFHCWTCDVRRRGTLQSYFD

The next assay has as its target T4, Adenosine receptor A1 (Rattus norvegicus, UniProt P25099).
T4 sequence (P25099 whole entry): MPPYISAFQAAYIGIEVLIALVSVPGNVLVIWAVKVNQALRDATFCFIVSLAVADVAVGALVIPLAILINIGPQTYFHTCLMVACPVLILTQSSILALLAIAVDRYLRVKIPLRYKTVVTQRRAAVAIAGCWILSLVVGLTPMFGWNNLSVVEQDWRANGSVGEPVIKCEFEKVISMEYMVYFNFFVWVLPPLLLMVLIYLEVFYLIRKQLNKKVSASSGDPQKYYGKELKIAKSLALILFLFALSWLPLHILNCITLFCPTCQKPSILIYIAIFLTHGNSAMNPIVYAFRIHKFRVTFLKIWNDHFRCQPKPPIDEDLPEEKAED

Assay [8] deals with 5-hydroxytryptamine receptor 4 (Cavia porcellus, UniProt O70528).
Assay [9] addresses T5, Glycine receptor subunit alpha-1 (Rattus norvegicus, UniProt P07727).
T5 sequence (P07727 whole entry): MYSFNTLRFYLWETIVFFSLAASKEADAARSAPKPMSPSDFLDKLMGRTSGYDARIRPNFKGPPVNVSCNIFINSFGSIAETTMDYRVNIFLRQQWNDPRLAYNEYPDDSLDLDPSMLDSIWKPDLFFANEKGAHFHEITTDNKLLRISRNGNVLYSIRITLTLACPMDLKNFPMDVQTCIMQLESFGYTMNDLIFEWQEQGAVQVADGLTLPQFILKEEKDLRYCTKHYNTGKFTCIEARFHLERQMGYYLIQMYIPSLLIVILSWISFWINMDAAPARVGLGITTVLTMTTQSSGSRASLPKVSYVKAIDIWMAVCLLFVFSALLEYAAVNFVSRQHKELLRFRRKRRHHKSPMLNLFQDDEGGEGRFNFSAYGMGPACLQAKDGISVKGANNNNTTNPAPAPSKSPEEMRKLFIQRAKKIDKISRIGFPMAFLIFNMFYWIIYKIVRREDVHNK

For assay [10], the target named is Voltage-dependent L-type calcium channel subunit alpha-1C (Rattus norvegicus, UniProt P22002).
Assay [11] has as its target Glutamate receptor ionotropic, NMDA 1 (Rattus norvegicus, UniProt P35439).
Assay [12] concerns the target Sigma non-opioid intracellular receptor 1 (Mus musculus, UniProt O55242).
Assay [13] addresses Alpha-1B adrenergic receptor (Rattus norvegicus, UniProt P15823).
In assay [14] the target is Muscarinic acetylcholine receptor M2 (Rattus norvegicus, UniProt P10980).
The target of assay [15] is Gamma-aminobutyric acid receptor subunit alpha-1 (Rattus norvegicus, UniProt P62813).
For assay [16], the target named is Sodium channel protein type 10 subunit alpha (Rattus norvegicus, UniProt Q62968).
For assay [17], the target named is 5-hydroxytryptamine receptor 2C (Sus scrofa, UniProt G7ZKZ7).
In assay [18] the target is Alpha-2C adrenergic receptor (Rattus norvegicus, UniProt P22086).
Assay [19] concerns the target Sodium-dependent dopamine transporter (Rattus norvegicus, UniProt P23977).
In assay [20] the target is Gamma-aminobutyric acid (GABA) B receptor 1 (Rattus norvegicus, UniProt Q6MFX8).
The target in assay [21] is 5-hydroxytryptamine 1D receptor (Bos taurus, UniProt Q8MI13).
Assay [22] has as its target 5-hydroxytryptamine receptor 1A (Rattus norvegicus, UniProt P19327).
In assay [23] the target is 5-hydroxytryptamine receptor 2A (Rattus norvegicus, UniProt P14842).
Assay [24] has as its target 5-hydroxytryptamine receptor 1B (Rattus norvegicus, UniProt P28564).

These results are taken from BindingDB's records for PubMed 8996185 (SynthÉLabo Recherche, 1997).

Where “and” joins values, the source holds several entries; their conditions need not be identical. Identical values can stand only once. Counter-ions that a name gives are not always drawn.

Chain of 5-hydroxytryptamine receptor 4 (O70528 whole entry): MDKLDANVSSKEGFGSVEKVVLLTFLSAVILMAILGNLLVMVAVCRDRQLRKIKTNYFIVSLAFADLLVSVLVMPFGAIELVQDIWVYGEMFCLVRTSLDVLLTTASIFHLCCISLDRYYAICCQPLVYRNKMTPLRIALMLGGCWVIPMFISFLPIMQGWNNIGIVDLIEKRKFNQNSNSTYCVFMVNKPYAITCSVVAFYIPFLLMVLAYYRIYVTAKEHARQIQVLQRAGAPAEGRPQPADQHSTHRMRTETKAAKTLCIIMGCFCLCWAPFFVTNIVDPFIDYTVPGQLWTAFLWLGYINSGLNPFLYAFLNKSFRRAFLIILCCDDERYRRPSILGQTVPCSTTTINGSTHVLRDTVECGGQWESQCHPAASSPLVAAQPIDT
Chain of Nischarin (Q4G017 whole entry): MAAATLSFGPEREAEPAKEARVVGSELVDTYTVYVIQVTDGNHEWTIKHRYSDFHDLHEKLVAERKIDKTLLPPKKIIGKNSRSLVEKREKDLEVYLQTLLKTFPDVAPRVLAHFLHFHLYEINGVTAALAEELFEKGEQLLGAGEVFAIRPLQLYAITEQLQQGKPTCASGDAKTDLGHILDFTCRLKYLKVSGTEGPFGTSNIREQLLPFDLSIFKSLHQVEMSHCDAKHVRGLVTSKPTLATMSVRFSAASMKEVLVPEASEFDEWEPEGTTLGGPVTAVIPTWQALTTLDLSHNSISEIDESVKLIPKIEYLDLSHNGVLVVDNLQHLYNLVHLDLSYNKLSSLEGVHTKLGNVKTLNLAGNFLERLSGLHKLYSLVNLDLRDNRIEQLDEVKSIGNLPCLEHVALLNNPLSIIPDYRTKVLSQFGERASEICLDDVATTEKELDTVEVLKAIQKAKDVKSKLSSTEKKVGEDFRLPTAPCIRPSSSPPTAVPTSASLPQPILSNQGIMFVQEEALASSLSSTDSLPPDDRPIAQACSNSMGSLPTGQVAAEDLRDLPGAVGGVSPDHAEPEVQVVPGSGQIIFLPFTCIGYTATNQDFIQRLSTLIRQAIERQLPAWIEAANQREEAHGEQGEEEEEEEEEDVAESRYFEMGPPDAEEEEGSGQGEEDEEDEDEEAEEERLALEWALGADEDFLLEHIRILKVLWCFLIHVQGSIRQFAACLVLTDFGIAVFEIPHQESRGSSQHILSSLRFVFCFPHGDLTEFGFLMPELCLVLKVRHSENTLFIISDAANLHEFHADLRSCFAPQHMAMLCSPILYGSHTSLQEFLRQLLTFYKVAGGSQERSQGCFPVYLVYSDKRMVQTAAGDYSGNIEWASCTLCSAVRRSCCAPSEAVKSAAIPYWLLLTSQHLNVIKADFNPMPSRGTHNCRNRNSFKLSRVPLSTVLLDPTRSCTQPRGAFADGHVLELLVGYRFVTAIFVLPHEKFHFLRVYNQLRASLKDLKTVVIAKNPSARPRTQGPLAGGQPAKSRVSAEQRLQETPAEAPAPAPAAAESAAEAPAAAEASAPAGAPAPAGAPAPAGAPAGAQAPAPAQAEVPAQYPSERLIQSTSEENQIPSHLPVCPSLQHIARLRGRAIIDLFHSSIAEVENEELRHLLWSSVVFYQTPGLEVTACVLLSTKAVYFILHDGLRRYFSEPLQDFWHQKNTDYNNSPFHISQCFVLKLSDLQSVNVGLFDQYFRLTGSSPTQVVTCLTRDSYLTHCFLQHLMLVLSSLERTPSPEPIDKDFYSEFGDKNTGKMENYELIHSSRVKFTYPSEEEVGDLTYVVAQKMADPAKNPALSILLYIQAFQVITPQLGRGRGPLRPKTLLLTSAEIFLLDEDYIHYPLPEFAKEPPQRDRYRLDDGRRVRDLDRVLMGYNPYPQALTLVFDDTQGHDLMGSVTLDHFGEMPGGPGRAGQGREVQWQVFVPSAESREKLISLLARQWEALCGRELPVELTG
Chain of Adenosine receptor A2a (P30543 whole entry): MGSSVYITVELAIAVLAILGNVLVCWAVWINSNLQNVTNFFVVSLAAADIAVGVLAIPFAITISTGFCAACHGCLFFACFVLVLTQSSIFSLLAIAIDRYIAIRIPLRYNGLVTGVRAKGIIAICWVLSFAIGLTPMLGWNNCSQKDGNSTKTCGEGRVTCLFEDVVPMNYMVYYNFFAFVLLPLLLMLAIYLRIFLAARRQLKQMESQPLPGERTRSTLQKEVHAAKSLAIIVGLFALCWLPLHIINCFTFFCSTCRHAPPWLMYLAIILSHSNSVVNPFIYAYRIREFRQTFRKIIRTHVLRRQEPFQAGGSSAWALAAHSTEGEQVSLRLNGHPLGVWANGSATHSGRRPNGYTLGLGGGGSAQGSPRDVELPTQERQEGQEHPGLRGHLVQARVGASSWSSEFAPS
Chain of Beta-2 adrenergic receptor (P10608 whole entry): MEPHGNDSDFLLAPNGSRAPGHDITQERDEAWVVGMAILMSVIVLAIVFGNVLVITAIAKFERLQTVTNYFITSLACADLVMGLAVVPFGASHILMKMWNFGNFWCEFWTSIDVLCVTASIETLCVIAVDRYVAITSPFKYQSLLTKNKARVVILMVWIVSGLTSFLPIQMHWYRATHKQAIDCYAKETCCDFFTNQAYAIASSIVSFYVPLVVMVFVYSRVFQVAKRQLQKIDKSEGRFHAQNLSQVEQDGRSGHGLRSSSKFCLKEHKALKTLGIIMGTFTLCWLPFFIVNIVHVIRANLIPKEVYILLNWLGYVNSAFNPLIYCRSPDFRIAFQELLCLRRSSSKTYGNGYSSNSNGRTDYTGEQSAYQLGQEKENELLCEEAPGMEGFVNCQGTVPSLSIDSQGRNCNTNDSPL
Chain of Glutamate receptor 3 (P19492 whole entry): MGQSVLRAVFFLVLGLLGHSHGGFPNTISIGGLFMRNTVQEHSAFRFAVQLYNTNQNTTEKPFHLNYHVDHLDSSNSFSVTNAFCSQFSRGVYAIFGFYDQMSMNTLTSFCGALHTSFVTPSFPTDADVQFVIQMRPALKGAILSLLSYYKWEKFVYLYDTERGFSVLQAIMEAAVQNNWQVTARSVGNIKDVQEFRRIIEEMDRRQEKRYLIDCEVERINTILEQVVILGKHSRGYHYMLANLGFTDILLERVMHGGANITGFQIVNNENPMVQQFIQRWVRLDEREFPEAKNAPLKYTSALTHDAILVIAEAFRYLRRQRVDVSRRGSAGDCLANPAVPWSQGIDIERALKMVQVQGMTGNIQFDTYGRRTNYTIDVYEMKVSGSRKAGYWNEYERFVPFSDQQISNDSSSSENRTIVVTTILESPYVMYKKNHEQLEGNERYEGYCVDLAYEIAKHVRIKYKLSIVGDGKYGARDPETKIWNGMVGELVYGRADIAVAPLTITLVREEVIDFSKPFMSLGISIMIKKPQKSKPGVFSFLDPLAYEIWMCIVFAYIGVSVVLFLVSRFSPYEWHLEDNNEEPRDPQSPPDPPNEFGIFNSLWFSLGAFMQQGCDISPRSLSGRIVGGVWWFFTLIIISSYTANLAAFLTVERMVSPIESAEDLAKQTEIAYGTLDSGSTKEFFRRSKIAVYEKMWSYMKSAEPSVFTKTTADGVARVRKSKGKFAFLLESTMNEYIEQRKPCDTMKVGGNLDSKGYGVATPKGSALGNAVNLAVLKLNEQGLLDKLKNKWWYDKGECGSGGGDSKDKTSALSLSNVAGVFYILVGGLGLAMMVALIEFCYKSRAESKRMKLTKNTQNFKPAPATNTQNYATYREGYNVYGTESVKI
Chain of Glutamate receptor ionotropic, kainate 1 (P22756 whole entry): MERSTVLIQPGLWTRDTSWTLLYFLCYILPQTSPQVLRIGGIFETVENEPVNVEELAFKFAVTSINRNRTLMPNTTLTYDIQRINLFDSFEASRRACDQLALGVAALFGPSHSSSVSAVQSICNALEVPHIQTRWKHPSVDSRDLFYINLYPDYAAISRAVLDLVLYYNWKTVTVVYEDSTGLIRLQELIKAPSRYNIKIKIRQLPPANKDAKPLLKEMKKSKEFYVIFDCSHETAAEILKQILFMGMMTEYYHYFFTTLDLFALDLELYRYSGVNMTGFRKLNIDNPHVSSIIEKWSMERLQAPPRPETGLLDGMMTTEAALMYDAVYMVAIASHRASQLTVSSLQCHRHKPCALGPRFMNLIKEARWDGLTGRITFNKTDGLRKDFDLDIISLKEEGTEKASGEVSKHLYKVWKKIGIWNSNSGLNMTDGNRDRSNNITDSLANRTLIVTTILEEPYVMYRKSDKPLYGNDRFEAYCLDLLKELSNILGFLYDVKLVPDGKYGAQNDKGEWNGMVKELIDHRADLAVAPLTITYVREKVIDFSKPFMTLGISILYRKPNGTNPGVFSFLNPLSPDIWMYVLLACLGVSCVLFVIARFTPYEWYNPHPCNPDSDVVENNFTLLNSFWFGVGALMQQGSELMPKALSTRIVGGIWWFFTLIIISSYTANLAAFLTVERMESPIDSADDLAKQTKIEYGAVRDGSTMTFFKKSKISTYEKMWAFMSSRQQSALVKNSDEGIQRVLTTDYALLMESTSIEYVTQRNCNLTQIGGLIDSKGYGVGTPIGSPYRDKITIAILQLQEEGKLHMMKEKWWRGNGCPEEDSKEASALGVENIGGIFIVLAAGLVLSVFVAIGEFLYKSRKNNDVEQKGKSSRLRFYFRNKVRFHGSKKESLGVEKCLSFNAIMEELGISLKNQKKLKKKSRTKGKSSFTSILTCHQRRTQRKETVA
Chain of D(3) dopamine receptor (F1N454 whole entry): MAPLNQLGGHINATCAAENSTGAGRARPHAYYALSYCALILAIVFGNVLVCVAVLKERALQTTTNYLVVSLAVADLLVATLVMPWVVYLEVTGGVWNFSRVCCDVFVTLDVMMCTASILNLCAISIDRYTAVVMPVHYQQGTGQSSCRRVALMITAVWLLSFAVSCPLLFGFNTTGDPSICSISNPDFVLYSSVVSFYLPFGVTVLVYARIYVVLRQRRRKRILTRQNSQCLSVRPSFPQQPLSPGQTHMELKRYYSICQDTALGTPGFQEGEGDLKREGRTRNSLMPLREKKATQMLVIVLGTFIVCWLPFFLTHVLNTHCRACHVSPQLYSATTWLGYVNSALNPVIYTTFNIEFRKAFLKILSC
Chain of 5-hydroxytryptamine 1D receptor (Q8MI13 whole entry): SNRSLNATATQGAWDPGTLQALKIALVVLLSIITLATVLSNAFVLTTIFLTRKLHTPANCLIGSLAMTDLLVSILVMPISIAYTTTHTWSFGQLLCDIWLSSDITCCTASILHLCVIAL

For `O=C(CCCN1CCC(O)(c2ccc(Cl)cc2)CC1)c1ccc(F)cc1` [4-[4-(4-Chloro-phenyl)-4-hydroxy-piperidin-1-yl]-1-(4-fluoro-phenyl)-butan-1-one;propionate(HCl)], the Ki (at Glutamate receptor 3; on Adenosine receptor A2a; in [1]; in assay [2]; at Nischarin; in assay [3]) was above 10 µM throughout. The inhibition constant Ki (in [4]; in assay [5]; in [6]; in assay [7]; at Adenosine receptor A1; in assay [8]) was above 10 µM in each case. This compound also returned a Ki in assay [9] above 10 µM.

For the compound `CN1CCN(C2=c3ccccc3=Nc3ccc(Cl)cc3N2)CC1` [6-chloro-10-(4-methylpiperazin-1-yl)-2,9-diazatricyclo[9.4.0.0^{3,8}]pentadeca-1,3(8),4,6,10,12,14-heptaene], the Ki on D(3) dopamine receptor was 0.88 µM; in assay [10], above 10 µM; at Glutamate receptor 3, above 10 µM; in assay [11] it was > 10 µM and 5 µM; on Adenosine receptor A2a, above 10 µM; in assay [1], above 10 µM. Further, the Ki (in assay [2]; at Nischarin; in assay [4]; in [5]; in assay [6]; in [7]) was above 10 µM in each case. Moreover, the Ki at Adenosine receptor A1 was above 10 µM; in assay [8], above 10 µM; in assay [12], 6.4 µM; in assay [9], above 10 µM.

On to `CCN1CCCC1CNC(=O)c1cc(S(=O)(=O)CC)c(N)cc1OC` (centres undefined) [NSC_2159], for which the Ki at D(3) dopamine receptor was 0.0029 µM; in assay [10] it was above 10 µM; in assay [13] it was above 10 µM; in assay [14], above 10 µM; in assay [15] it was above 10 µM; at Glutamate receptor 3 it was above 10 µM. Also, the Ki is above 10 µM in assay [16]; above 10 µM in assay [11]; 0.021 µM at D(2) dopamine receptor; above 10 µM at Adenosine receptor A2a; above 10 µM in [17]; 1.6 µM in [18]. Also, the Ki (in [1]; at Nischarin; in [19]; in assay [3]; in [4]; in assay [5]) was above 10 µM in each case. For the same compound, the Ki (in assay [20]; in assay [6]; in assay [7]; at Adenosine receptor A1; in assay [21]; in assay [8]) was above 10 µM each time. Also, the Ki is above 10 µM in assay [22]; above 10 µM in assay [12]; above 10 µM in assay [9]; 2 µM in assay [23]; above 10 µM at Histamine H1 receptor; above 10 µM in assay [24].

A word on the Ki: it is a dissociation constant, usually derived from enzyme kinetics or from competition with a known ligand.
